Strand notation (5' to 3'): a small letter for the sugar, then the base; units joined by * are phosphorothioate-linked, units joined directly phosphodiester-linked; [ ] holds rarer units or linkages, { } end groups; capitals alone tell only the bases. k = constrained ethyl (cEt); [5mC] = 5-methylcytosine; d = 2'-deoxy (DNA)
System: Yap1 mRNA
Assay: Antisense inhibition of human Yap1 in A-431 cells by cEt gapmers, single dose (Example 2, RTS4814)
Assay type: cell-based
Conditions: A-431 cells, 5,000 cells per well, free uptake, 2,000 nM modified oligonucleotide, approx. 48 hours, RTS4814, normalized to RIBOGREEN; Table 4; asterisk (*) = targets amplicon region of primer probe set
Description: Modified oligonucleotides were designed to target a Yap1 nucleic acid and were tested for their effect on Yap1 mRNA level in vitro. The modified oligonucleotides were tested in a series of experiments that had similar culture conditions. Cultured A-431 cells at a density of 5,000 cells per well were treated using free uptake with 2,000 nM of modified oligonucleotide. After a treatment period of approximately 48 hours, RNA was isolated from the cells and Yap1 mRNA levels were measured by quantitative real-time RTPCR. Human primer probe set RTS4814 was used to measure mRNA levels. Yap1 mRNA levels were normalized to total RNA content, as measured by RIBOGREEN®. Results are presented in the tables below as percent control of the amount of Yap1 mRNA relative to untreated control cells (% UTC). The modified oligonucleotides with percent control values marked with an asterisk (*) target the amplicon region of the primer probe set. Additional assays may be used to measure the potency and efficacy of the modified oligonucleotides targeting the amplicon region.
The newly designed modified oligonucleotides in the Tables below were designed as 3-10-3 cEt gapmers. The gapmers are 16 nucleosides in length, wherein the central gap segment comprises of ten 2′-deoxynucleosides and is flanked by wing segments on the 5′ direction and the 3′ direction comprising three nucleosides each. Each nucleoside in the 5′ wing segment and each nucleoside in the 3′ wing segment has a cEt sugar modification. The internucleoside linkages throughout each gapmer are phosphorothioate (P═S) linkages. All cytosine residues throughout each gapmer are 5-methylcytosines.
“Start site” indicates the 5′-most nucleoside to which the gapmer is targeted in the human gene sequence. “Stop site” indicates the 3′-most nucleoside to which the gapmer is targeted human gene sequence. […] Activity ofthe modified oligonucleotide may be defined in a different experiment.

Substance	YAP1 (% UTC)
716391 (kG*kG*kA*dG*d[5mC]*dA*d[5mC]*dT*d[5mC]*dT*dG*dA*d[5mC]*kT*kG*kA; antisense) [Compound 716391]	44 % UTC
716478 (kT*kA*kT*dT*dT*dT*dA*dA*dT*d[5mC]*dT*dA*dG*kT*k[5mC]*kG; antisense) [Compound 716478]	46 % UTC
716358 (k[5mC]*kG*kA*dG*dG*dG*d[5mC]*dT*dA*d[5mC]*dG*d[5mC]*d[5mC]*k[5mC]*kG*kG; antisense) [Compound 716358]	104 % UTC

Same assay, conditions: Table 5; A-431 cells, 5,000 cells per well, free uptake, 2,000 nM modified oligonucleotide, approx. 48 hours; RTS4814; normalized to RIBOGREEN; Yap1 mRNA relative to untreated control cells

Substance	YAP1 (% UTC)
716377 (kG*kG*kT*dA*dT*d[5mC]*dT*d[5mC]*dA*dA*dA*dA*dG*kA*kA*kG; antisense) [Compound 716377]	76 % UTC
716521 (antisense k[5mC]*kA*kG*d[5mC]*dA*d[5mC]*dG*dG*dT*dG*dT*dA*dA*kG*kA*k[5mC]) [Compound 716521]	79 % UTC
716398 (kT*kA*kT*dT*d[5mC]*d[5mC]*dG*d[5mC]*dA*dT*dT*dG*d[5mC]*k[5mC]*kT*kG; antisense) [Compound 716398]	70 % UTC
716542 (antisense k[5mC]*kT*kT*d[5mC]*d[5mC]*d[5mC]*dT*dG*dT*dG*dT*dT*d[5mC]*kA*kT*kT) [Compound 716542]	45 % UTC

Same assay, conditions: Table 6; A-431 cells, 5,000 cells per well, free uptake, 2,000 nM modified oligonucleotide, approx. 48 hours; RTS4814; normalized to RIBOGREEN; Yap1 mRNA relative to untreated control cells

Substance	YAP1 (% UTC)
716579 (kA*kT*kA*dG*dA*dG*dA*dT*dT*dT*dT*d[5mC]*d[5mC]*k[5mC]*kT*k[5mC]; antisense) [Compound 716579]	84 % UTC
716351 (kG*kG*kT*d[5mC]*dT*dG*dG*d[5mC]*dG*dG*d[5mC]*dT*dG*k[5mC]*kG*k[5mC]; antisense) [Compound 716351]	112 % UTC

Same assay, conditions: Table 18; A-431 cells, 5,000 cells per well, free uptake, 2,000 nM modified oligonucleotide, approx. 48 hours; RTS4814; normalized to RIBOGREEN; Yap1 mRNA as percent of untreated control

Substance	YAP1 (% UTC)
1075396 (kA*kT*kT*dA*dT*d[5mC]*dG*d[5mC]*dA*d[5mC]*dA*dT*dA*k[5mC]*kA*kT; antisense) [Compound 1075396]	89 % UTC
1076004 (kT*kA*kA*dT*dT*dT*dA*dA*dT*dG*dG*d[5mC]*dT*kT*kG*k[5mC]; antisense) [Compound 1076004]	2 % UTC
1074916 (antisense kA*kA*kG*dT*dT*dA*d[5mC]*dA*dT*d[5mC]*d[5mC]*d[5mC]*dG*kA*kG*kT) [Compound 1074916]	75 % UTC
1075716 (kG*k[5mC]*k[5mC]*dG*dA*dA*dA*dT*dA*d[5mC]*dT*d[5mC]*dT*k[5mC]*kA*kT; antisense) [Compound 1075716]	19 % UTC
1075748 (kG*kT*kA*dA*dA*dT*d[5mC]*dA*dA*dG*dT*dT*dG*k[5mC]*kA*kT; antisense) [Compound 1075748]	7 % UTC

Same assay, conditions: Table 19; A-431 cells, 5,000 cells per well, free uptake, 2,000 nM modified oligonucleotide, approx. 48 hours; RTS4814; normalized to RIBOGREEN; Yap1 mRNA as percent of untreated control

Substance	YAP1 (% UTC)
1074853 (antisense k[5mC]*kA*kA*dT*dT*dG*dT*dT*dA*dT*dG*dA*dT*kA*kG*kG) [Compound 1074853]	15 % UTC

Same assay, conditions: Table 20; Yap1 mRNA, percent of untreated control; 3-10-3 cEt gapmers targeting SEQ ID NO.: 1 and 2

Substance	YAP1 (% UTC)
1076390 (kG*kA*kT*d[5mC]*dG*dA*dA*dA*dT*dA*dT*dT*d[5mC]*kG*kA*kG; antisense) [Compound 1076390]	54 % UTC
1076102 (k[5mC]*kT*kT*dA*dA*d[5mC]*dA*dA*dA*dT*d[5mC]*dA*dG*k[5mC]*k[5mC]*k[5mC]; antisense) [Compound 1076102]	32 % UTC
1075718 (k[5mC]*k[5mC]*kA*d[5mC]*dT*dA*dA*dA*dA*d[5mC]*d[5mC]*dA*dA*kG*kT*kT; antisense) [Compound 1075718]	48 % UTC
1074246 (antisense kA*kA*kG*dA*dA*dG*dT*dA*dT*d[5mC]*dT*d[5mC]*dT*kG*kA*k[5mC]) [Compound 1074246]	11 % UTC

Same assay, conditions: Table 21; Yap1 mRNA, percent of untreated control; 3-10-3 cEt gapmers targeting SEQ ID NO.: 1 and 2

Substance	YAP1 (% UTC)
1074663 (antisense k[5mC]*kA*kT*dT*d[5mC]*dT*dA*dG*dG*dT*dA*dG*dA*kA*kT*kT) [Compound 1074663]	79 % UTC
1076295 (kG*kT*kA*dT*dA*dT*dT*dA*dG*dT*dG*d[5mC]*d[5mC]*k[5mC]*k[5mC]*k[5mC]; antisense) [Compound 1076295]	2 % UTC

Same assay, conditions: Table 23; Yap1 mRNA as percent of untreated control; 3-10-3 cEt gapmers; single dose

Substance	YAP1 (% UTC)
1075337 (kG*k[5mC]*kT*dT*dA*dT*dA*dT*d[5mC]*d[5mC]*dT*dG*dT*kA*kA*k[5mC]; antisense) [Compound 1075337]	48 % UTC
1075113 (antisense kT*kA*kT*dA*dA*dA*dT*dA*d[5mC]*d[5mC]*dA*dG*dG*kT*kA*k[5mC]) [Compound 1075113]	67 % UTC

Same assay, conditions: Table 24; Yap1 mRNA as percent of untreated control; 3-10-3 cEt gapmers targeting SEQ ID NO.: 1, and 2

Substance	YAP1 (% UTC)
1075210 (antisense kG*kT*kA*dT*dT*dT*dT*dA*dA*d[5mC]*d[5mC]*dT*dA*kA*kA*k[5mC]) [Compound 1075210]	100 % UTC
1074442 (kG*kA*k[5mC]*d[5mC]*dA*dG*dT*dA*dA*dA*dT*d[5mC]*dA*kT*kG*kT; antisense) [Compound 1074442]	21 % UTC
1075594 (kT*kG*kA*dG*dA*dA*dT*dA*dT*dT*d[5mC]*d[5mC]*dT*k[5mC]*k[5mC]*k[5mC]; antisense) [Compound 1075594]	64 % UTC

Same assay, conditions: Table 32; Yap1 mRNA, percent of untreated control; 3-10-3 cEt gapmers targeting SEQ ID NO.: 1, and 2

Substance	YAP1 (% UTC)
1074162 (kA*kG*kG*d[5mC]*dG*dA*dG*d[5mC]*dG*dA*dG*dG*dG*k[5mC]*kT*kA; antisense) [compound 1074162]	101 % UTC
1075570 (kG*kA*kT*dA*d[5mC]*dT*dA*dA*dG*d[5mC]*dA*d[5mC]*dA*kG*kA*kG; antisense) [compound 1075570]	16 % UTC

Same assay, conditions: Table 33; Yap1 mRNA, percent of untreated control; 3-10-3 cEt gapmers targeting SEQ ID NO.: 1, and 2

Substance	YAP1 (% UTC)
1075827 (kA*kT*kA*d[5mC]*dT*dA*dT*dA*d[5mC]*d[5mC]*dT*dA*dA*kG*kG*kA; antisense) [compound 1075827]	60 % UTC
1075571 (antisense k[5mC]*kA*kA*dA*dT*dA*dG*dA*dT*dA*d[5mC]*dT*dA*kA*kG*k[5mC]) [compound 1075571]	54 % UTC
1075763 (kA*kT*kT*dT*dA*dG*dG*d[5mC]*dT*dT*dT*dG*dG*kG*kT*kT; antisense) [compound 1075763]	16 % UTC
1075219 (k[5mC]*k[5mC]*kT*dT*dA*dA*d[5mC]*dA*d[5mC]*dT*dG*dG*dT*kA*kA*kG; antisense) [compound 1075219]	117 % UTC
1075891 (antisense kA*kG*kA*dT*dT*dA*dA*dA*dA*dG*dT*dA*dG*kG*k[5mC]*k[5mC]) [compound 1075891]	89 % UTC
1076339 (antisense k[5mC]*kA*kG*d[5mC]*dA*dA*dT*dA*d[5mC]*dT*dG*dT*dG*kG*kG*k[5mC]) [compound 1076339]	13 % UTC

Same assay, conditions: Yap1 mRNA as percent of untreated control; A-431 cells; 3-10-3 cEt gapmers targeting SEQ ID NO.: 1, and 2; Table 30

Substance	YAP1 (% UTC)
1076080 (k[5mC]*kA*kT*dT*dA*dG*d[5mC]*dA*dG*dT*dT*d[5mC]*dA*k[5mC]*kT*kA; antisense) [compound 1076080]	55 % UTC
1074352 (antisense k[5mC]*kA*kT*dG*d[5mC]*dT*dT*dA*dG*dT*d[5mC]*d[5mC]*dA*k[5mC]*kT*kG) [compound 1074352]	69 % UTC

Same assay, conditions: Yap1 mRNA as percent of untreated control; A-431 cells; 3-10-3 cEt gapmers targeting SEQ ID NO.: 1, and 2; Table 31

Substance	YAP1 (% UTC)
1075121 (kA*kA*kA*dA*dT*dT*dA*dG*d[5mC]*d[5mC]*dT*dA*d[5mC]*k[5mC]*kA*k[5mC]; antisense) [compound 1075121]	40 % UTC
1076273 (kA*kA*kA*d[5mC]*dA*dA*dA*dA*dT*dG*dG*d[5mC]*dG*kA*kA*kT; antisense) [compound 1076273]	84 % UTC
1074257 (antisense kG*k[5mC]*kA*d[5mC]*dT*dG*dG*dT*dG*dG*dA*d[5mC]*dT*kG*kG*kT) [compound 1074257]	29 % UTC
